Here are results for 20 compounds from patent publication US12503453B2, “USP7 inhibition” (Dana-Farber Cancer Institute, Inc., priority 2018, dated 2025).

As a reminder, the IC50 is the concentration that inhibits the measured activity by half.

The test system of one assay is TC32 cells. The assay is described as follows: Drug synergy analysis (Chou-Talalay combination index), TC32. It counts as cell-based. From the text: Loewe Additivity is a dose-effect approach that estimates the effect of combining two drugs based on the concentration of each individual drug that produces the same quantitative effect (Goldoni and Johansson, 2007). […] They introduced the combination index (CI) scores to estimate the interaction between the two drugs.

A further assay relates to MCF7 cells. The assay is described as follows: Drug synergy analysis (Chou-Talalay combination index), MCF7. It counts as cell-based. From the text: Loewe Additivity is a dose-effect approach that estimates the effect of combining two drugs based on the concentration of each individual drug that produces the same quantitative effect (Goldoni and Johansson, 2007). […] They introduced the combination index (CI) scores to estimate the interaction between the two drugs. If CI<1, the drugs have a synergistic effect, and if CI>1, the drugs have an antagonistic effect. CI=1 means the drugs have an additive effect.

The test system of assay [1] is Ewing sarcoma cell lines, TP53 WT and mutant. The assay is described as follows: Cell proliferation (CellTiter-Glo), panel of Ewing sarcoma cell lines. It is filed as cell-based. The note with it: same set of cell lines. How it is done: Cells were plated in 384-well culture-treated plates and allowed to settle overnight. After drug treatment and appropriate incubation time, cell viability was assessed using the CellTiter-Glo Luminescent Cell Viability Assay (Promega). Luminescence was read on a Fluostar Omega Reader (BMG Labtech).

A further assay concerns the target full length USP7 (Homo sapiens (Human), UniProt Q93009). The assay is described as follows: Ub-AMC enzymatic assay with full-length USP7. To be noted: for IC50: 6 hours pre-incubation, Ub-AMC. It is filed as biochemical. The method, then:
Both constructs were overexpressed in E. coli BL21 (DE3). Cells were grown at 37° C. to an OD of 0.9, cooled to 16° C., induced with 500 μM isopropyl-1-thio-D-galactopyranoside (IPTG), incubated overnight at 16° C., collected by centrifugation, and stored at −80° C. Cell pellets were sonicated in lysis buffer (25 mM Tris pH 8, 1 M NaCl, and 10 mM BME) supplemented with 10 μg/ml phenylmethanesulfonylfluoride (PMSF) and the resulting lysate was centrifuged at 30,000×g for 40 min. Ni-NTA beads (Qiagen) were mixed with lysate supernatant for 2 hours, and washed with lysis buffer supplemented with 25 mM imidazole. The bound protein was eluted with lysis buffer supplemented with 300 mM imidazole. The sample was then concentrated to 1 ml (30 kDa concentrator; Amicon Ultra, Millipore), and run on a Superdex 200 (GE healthcare) in buffer containing 25 mM HEPES pH 7.5, 200 mM NaCl, and 1 mM DTT. Fractions were pooled, concentrated and frozen at −80° C.
Full length USP7 was tested for its activity in Ubiquitin-AMC assay in presence or absence of inhibitors. USP7 (5 nM) was pre-incubated for 6 hours at room temperature with different concentrations of inhibitors or DMSO as a control in 50 mM HEPES pH 7.5, 0.5 mM EDTA, 11 μM ovalbumin, and 5 mM DTT. Ubiquitin-AMC (Boston Biochem) was then added to a final concentration of 500 nM. The initial rate of the reaction was measured by collecting fluorescence data at one minute intervals over 30-minute period using a Clariostar fluorescence plate reader at excitation and emission wavelength of 345 and 445 nm respectively. The calculated initial rate values were plotted against inhibitor concentrations to determine IC50s. All the experimental data were plotted using Prism GraphPad. All assays for each compound were performed at least twice for each compound.

For the next assay, the target named is USP7 catalytic domain (Homo sapiens (Human), UniProt Q93009). The assay is described as follows: MS labeling of purified USP7 catalytic domain (intact MS, CE-MS). It counts as binding. To be noted: 15 minutes incubation. The method, then: Purified USP7 catalytic domain was diluted to 20 μM in 10 μL labeling buffer (20 mM HEPES pH 7.5, 150 mM NaCl, 1 mM TCEP) and incubated for the indicated times with 50 μM (2.5×) compound. After incubation, samples were flash frozen in liquid nitrogen and stored at −80° C. until analysis.
Chain of USP7 catalytic domain (Q93009 208-560): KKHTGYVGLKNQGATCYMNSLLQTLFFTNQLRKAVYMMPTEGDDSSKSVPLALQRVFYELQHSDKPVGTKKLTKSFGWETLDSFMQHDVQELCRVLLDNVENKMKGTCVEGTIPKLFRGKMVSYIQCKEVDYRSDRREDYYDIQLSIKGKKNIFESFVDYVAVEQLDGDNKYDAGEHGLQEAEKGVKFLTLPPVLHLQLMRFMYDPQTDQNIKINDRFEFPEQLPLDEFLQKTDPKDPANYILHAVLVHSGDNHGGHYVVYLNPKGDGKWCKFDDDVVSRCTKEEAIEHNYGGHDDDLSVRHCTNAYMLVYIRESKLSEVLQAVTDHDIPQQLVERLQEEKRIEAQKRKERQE
Intact mass analysis was performed by injecting 5 μg USP7 catalytic domain onto a self-packed reversed phase column ( 1/32″ O.D.×500 um I.D., 5 cm of POROS 10R2 resin). After desalting, protein was eluted with an HPLC gradient (0-100% B in 4 minutes, A=0.2M acetic acid in water, B=0.2 M acetic acid in acetonitrile, flow rate ˜30 μL/min) into an LTQ ion trap mass spectrometer (ThermoFisher Scientific, San Jose, CA). Mass spectra were deconvoluted using MagTran1.03b2 software. Zhang, Z. & Marshall, A. G. A universal algorithm for fast and automated charge state deconvolution of electrospray mass-to-charge ratio spectra. J. Am. Soc. Mass Spectrom. 9, 225-233 (1998).
To identify sites of covalent modification, treated protein was reduced (10 mM dithiothreitol), alkylated (22.5 mM iodoacetamide), and digested with trypsin overnight at 37° C. Peptides were desalted using SP3 (Hughes, C. S. et al. Ultrasensitive proteome analysis using paramagnetic bead technology. Mol. Syst. Biol. 10, 757-757 (2014)), dried by vacuum centrifugation, and reconstituted in 1% formic acid/50% acetonitrile with 100 mM ammonium acetate. Peptides were then analyzed by CE-MS using a ZipChip CE system and autosampler (908 Devices, Boston, MA) interfaced to a QExactive HF mass spectrometer (ThermoFisher Scientific, San Jose, CA). Peptide solution was loaded for 30 seconds, and the mass spectrometer was operated in data dependent mode and subjected the 5 most abundant ions in each MS scan (60 k resolution, 3E6 target, lock mass enabled) to MS/MS (15 k resolution, 1E5 target, 100 ms max inject time). Dynamic exclusion was enabled with a repeat count of 1 and an exclusion time of 6 seconds. […]

Setting [2] is: Table 1, read-out: IC50 (nM), USP7 activity in USP7 assay.
Where [3] appears, read: Table 2, read-out: IC50 (μM), USP7 activity in USP7 assay.
The mark [4] stands for this setting: Table 3, read-out: IC50 (μM), USP7 activity in USP7 assay.

Where two headings read alike, the source gives them in different places.

Chain of full length USP7 (Q93009 whole entry): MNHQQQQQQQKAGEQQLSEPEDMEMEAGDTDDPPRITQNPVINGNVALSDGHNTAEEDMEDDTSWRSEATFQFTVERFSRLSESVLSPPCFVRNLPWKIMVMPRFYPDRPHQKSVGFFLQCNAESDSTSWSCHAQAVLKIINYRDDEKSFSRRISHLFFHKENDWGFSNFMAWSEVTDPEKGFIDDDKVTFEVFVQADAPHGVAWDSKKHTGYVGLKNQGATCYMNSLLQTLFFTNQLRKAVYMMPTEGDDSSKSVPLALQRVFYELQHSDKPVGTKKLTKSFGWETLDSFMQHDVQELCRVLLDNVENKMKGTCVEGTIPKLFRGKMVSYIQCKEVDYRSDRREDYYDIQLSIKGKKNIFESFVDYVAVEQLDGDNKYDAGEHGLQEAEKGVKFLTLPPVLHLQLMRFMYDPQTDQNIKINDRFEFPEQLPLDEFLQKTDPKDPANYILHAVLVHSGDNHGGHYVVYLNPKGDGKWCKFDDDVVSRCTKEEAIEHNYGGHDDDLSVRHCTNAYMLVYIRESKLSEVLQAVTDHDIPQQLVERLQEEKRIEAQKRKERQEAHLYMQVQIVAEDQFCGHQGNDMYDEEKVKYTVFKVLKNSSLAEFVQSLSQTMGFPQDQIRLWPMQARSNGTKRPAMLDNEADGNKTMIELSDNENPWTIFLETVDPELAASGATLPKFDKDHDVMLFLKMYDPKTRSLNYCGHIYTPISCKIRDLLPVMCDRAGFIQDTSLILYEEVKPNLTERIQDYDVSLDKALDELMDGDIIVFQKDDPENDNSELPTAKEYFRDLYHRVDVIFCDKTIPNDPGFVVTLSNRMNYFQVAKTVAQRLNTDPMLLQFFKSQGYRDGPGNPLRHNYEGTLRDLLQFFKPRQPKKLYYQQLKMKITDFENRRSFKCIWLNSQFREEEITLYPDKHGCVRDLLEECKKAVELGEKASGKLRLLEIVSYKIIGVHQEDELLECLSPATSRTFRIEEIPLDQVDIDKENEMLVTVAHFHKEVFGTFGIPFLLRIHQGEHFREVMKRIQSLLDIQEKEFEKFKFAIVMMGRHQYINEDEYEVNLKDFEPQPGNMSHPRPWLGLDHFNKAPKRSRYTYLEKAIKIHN

For the compound `COc1cc(C(=O)O)ccc1NC(=O)[C@@H]1N[C@@H](CC(C)(C)C)[C@](C#N)(c2ccc(Cl)cc2F)[C@H]1c1cccc(Cl)c1F` [RG7388], in the assay with TC32 cells, the “combination index with compound 6” value is < 0.6.

Regarding `COc1cccc2c1C(=O)c1c(O)c3c(c(O)c1C2=O)C[C@@](O)(C(=O)CO)C[C@@H]3O[C@H]1C[C@H](N)[C@H](O)[C@H](C)O1` [doxorubicin], in the assay with TC32 cells, the “combination index with compound 6” value is given as < 0.6. The “interaction in combination with compound 6” value (from here on “interaction in combination”) with MCF7 cells was “mixed synergy and antagonism”.

As to `COc1cc([C@@H]2c3cc4c(cc3[C@@H](O[C@@H]3O[C@@H]5CO[C@@H](C)O[C@H]5[C@H](O)[C@H]3O)[C@H]3COC(=O)[C@H]23)OCO4)cc(OC)c1O` [etoposide], the “interaction in combination” value in the assay with MCF7 cells was “mixed synergy and antagonism”.

Consider `CCc1c(-c2ccc3[nH]ncc3c2)cnc(N)c1-c1ccc(O)cc1` [GNE6640], for which the “specificity for TP53-WT expressing cells” value in assay [1] is “little to no specificity for TP53-WT expressing cells”.

On to `Cc1ncc(Cl)cc1NCc1ccc(C(=O)N[C@@H](CC2CCCC2)C(=O)NC2CC2)s1` [GSK2830371], for which, in the assay with TC32 cells, the “combination index with compound 6” value is reported as < 0.6. Besides, in the assay with MCF7 cells, the “interaction in combination” value is “mixed synergy and antagonism”.

Turning to `C[C@@H]1NC(=O)N[C@@H]1CCCCCC(=O)NCCOCCOCCOCCC(=O)N1CCN(CC(=O)Nc2ccc3c(=O)n(CC4(O)CCN(C(=O)CCCCNC(=O)c5ccc6c(Cl)c7c(nc6c5)CCCC7)CC4)cnc3c2)CC1` [compound 6-DTB, 9-chloro-N-(5-(4-hydroxy-4-((7-(2-(4-(19-((4R,5S)-5-methyl-2-oxoimidazolidin-4-yl)-14-oxo-4,7,10-trioxa-13-azanonadecanoyl)piperazin-1-yl)acetamido)-4-oxoquinazolin-3(4H)-yl)methyl)piperidin-1-yl)-5-oxopentyl)-5,6,7,8-tetrahydroacridine-3-carboxamide], on full length USP7 (purified enzyme and native USP7), the USP7 inhibitory activity entry is “retained USP7 inhibitory activity”.

Consider `CN(C)C(=O)/C=C/c1ccc(C(=O)NCCC[C@@H](Cc2ccccc2)C(=O)N2CCC(O)(Cn3cnc4cc(NC(=O)CCN5CCOCC5)ccc4c3=O)CC2)cn1`, for which the IC50 on full length USP7 (setting [2]) is > 1000 nM.

Take `CN1CCN(CCC(=O)Nc2ccc3c(=O)n(CC4(O)CCN(C(=O)C(CCCNC(=O)c5ccc(/C=C6\CCCCC6=O)cc5)Cc5ccccc5)CC4)cnc3c2)CC1` (centres unmarked): the IC50 on full length USP7 (setting [3]) fell in the range of 20 to 100 nM.

Turning to `CN1CCN(CCC(=O)Nc2ccc3c(=O)n(CC4(O)CCN(C(=O)[C@@H](Cc5ccccc5)NC(=O)CNC(=O)c5ccc6c(Cl)c7c(nc6c5)CCCC7)CC4)cnc3c2)CC1`, the IC50 at full length USP7 (setting [4]) was in the range of 20 to 100 nM.

With `CN1CCN(CCC(=O)Nc2ccc3c(=O)n(CC4(O)CCN(C(=O)C(CCCNC(=O)c5ccc6cc7c(nc6c5)CCCC7)Cc5ccccc5)CC4)cnc3c2)CC1` (centres unmarked) [compound 40, N-(4-benzyl-5-(4-hydroxy-4-((7-(3-(4-methylpiperazin-1-yl)propanamido)-4-oxoquinazolin-3(4H)-yl)methyl)piperidin-1-yl)-5-oxopentyl)-5,6,7,8-tetrahydroacridine-3-carboxamide], on USP7 catalytic domain, the “labeling of USP7 catalytic domain by MS” value is given as “unable to label the USP7 catalytic domain”. At full length USP7 (full-length USP7, Ub-AMC), the “IC50 against USP7 (range in words)” value was “nanomolar range”.

Turning to `C=CS(=O)(=O)N1CCCc2cc(C(=O)NCCCC(Cc3ccccc3)C(=O)N3CCC(O)(Cn4cnc5cc(NC(=O)CCN6CCN(C)CC6)ccc5c4=O)CC3)ccc21` (centres unmarked), on full length USP7 (setting [2]), the IC50 was in the range of 20 to 100 nM.

`O=C(CCN1CCOCC1)Nc1ccc2c(=O)n(CC3(O)CCN(C(=O)[C@H](Cc4ccccc4)NC(=O)COc4ccc5c(Cl)c6c(nc5c4)CCCC6)CC3)cnc2c1`: the IC50 on full length USP7 (setting [4]) lay within 100 to 1000 nM.

Consider `O=C(CCN1CCOCC1)Nc1ccc2c(=O)n(CC3(O)CCN(C(=O)C(CCCNC(=O)c4ccc5c(Cl)c6c(nc5c4)CCCC6)Cc4ccc(F)c(C(F)(F)F)c4)CC3)cnc2c1` (centres unmarked), for which, at full length USP7 (setting [4]), the IC50 fell in the range of 20 to 100 nM.

Regarding `CN1CCN(CCC(=O)Nc2ccc3c(=O)n(CC4(O)CCN(C(=O)C(CCCNC(=O)c5ccc6c(c5)CCCN6C(=O)CCl)Cc5ccccc5)CC4)cnc3c2)CC1` (centres unmarked), the IC50 on full length USP7 (setting [2]) was 20 to 100 nM.

As for `C#CCNCCCC(Cc1ccccc1)C(=O)N1CCC(O)(Cn2cnc3cc(NC(=O)CCN4CCN(C)CC4)ccc3c2=O)CC1` (centres unmarked), the IC50 at full length USP7 (setting [3]) was in the range of 20 to 100 nM.

In the case of `C=CC(=O)Nc1cccc(-c2cn([C@@H](Cc3ccccc3)C(=O)N3CCC(O)(Cn4cnc5cc(NC(=O)CCN6CCOCC6)ccc5c4=O)CC3)nn2)c1`, the IC50 at full length USP7 (setting [4]) was > 1000 nM.

For `O=C(CCN1CCOCC1)Nc1ccc2c(=O)n(CC3(O)CCN(C(=O)[C@H](Cc4ccccc4)n4ccnn4)CC3)cnc2c1`, the IC50 at full length USP7 (setting [4]) is > 1000 nM.

Take `CN1CCN(CCC(=O)Nc2ccc3c(=O)n(CC4(O)CCN(C(=O)[C@@H](Cc5ccccc5)NC(=O)CNC(=O)c5ccc6c(Cl)ccnc6c5)CC4)cnc3c2)CC1`: the IC50 at full length USP7 (setting [4]) lay within 20 to 100 nM.

As for `CN1CCN(CCC(=O)Nc2ccc3c(=O)n(CC4(O)CCN(C(=O)C(CCCNC(=O)c5cc(C(=O)CCl)cn5C)Cc5ccccc5)CC4)cnc3c2)CC1` (centres unmarked), the concentration for half-maximal inhibition (IC50) on full length USP7 (setting [2]) is > 1000 nM.

Consider `O=C(CCn1ccnc1)Nc1ccc2c(=O)n(CC3(O)CCN(C(=O)CCCCNC(=O)c4ccc5c(Cl)c6c(nc5c4)CCCC6)CC3)cnc2c1`, for which the IC50 at full length USP7 (setting [2]) was 20 to 100 nM.
